Test results: patent US9028879B2, “Chromium complexes as enhancers of brain glucose transporters” (JDS Therapeutics, LLC, priority 2009, dated 2015)
Marks after values point to notes of the source that are not given here.

Tests used:
[1] = Serum and brain chromium levels in high fat diet rats
From the text: (§1) Briefly, insulin resistance and hyperglycemia were induced in male Wistar rats by feeding a high fat diet (HFD, 40% of calories as fat). A healthy control group received a standard diet (12% of calories as fat). Rats were fed their diets throughout the 12 week study.
(§2) Rats (10/group) were divided into groups: healthy control (Control), HFD, and HFD+CrHis. Chromium (Cr) treated rats were fed CrHis (110 mcg/kg body wt/d). Cr treatment started at the beginning of the study and was continued for 12 weeks. […] Body weight, serum chromium levels, and blood glucose levels were also measured.

[2] = Body weight and blood glucose in high fat diet rats; assay type: in vivo, male Wistar rats
From the text: as §1, §2

[3] = tested on: subject having GLUT1 deficiency syndrome; assay: Example 3: treatment of subject with GLUT1 deficiency syndrome; assay type: in vivo; conditions: 50 μg to 5000 μg/day, orally, after a period of time
From the text: A subject is identified as having GLUT1 deficiency syndrome. The subject presents with one or more symptoms associated with GLUT1 deficiency syndrome such as the presence of a SLC2A1 mutation, neurological problems associated with GLUT1 deficiency such as stiffness caused by abnormal tensing of the muscles (spasticity), difficulty in coordinating movements (ataxia), and speech difficulties (dysarthria). The subject can experience episodes of confusion, lack of energy (lethargy), headaches, muscle twitches (myoclonus), or involuntary irregular eye movements, particularly before meals.
The subject is administered between 50 μg and 5000 μg chromium histidinate, chromium picolinate, or chromium histidinate/chromium picolinate combination complex/day. The chromium histidinate is administered orally.

[4] = tested on: subject having Alzheimer's disease; assay: Example 5: treatment of subject with Alzheimer's disease with standard therapeutics; assay type: in vivo; conditions: 50 μg to 5000 μg chromium orally with standard therapeutics, over a period of five days
[5] = reported (Kaats 1998; Cefalu 1999); cited from earlier work
[6] = tested on: subject having Parkinson's disease; assay: Example 6: treatment of subject with Parkinson's disease; assay type: in vivo; conditions: 50 μg to 5000 μg, orally, over time
Description: A subject is identified as having Parkinson's disease by conventional methods.
The subject is administered between 50 μg and 5000 μg chromium polyhistidinate. The chromium is administered orally.

[7] = HFD rats, CrHis 110 mcg/kg body wt/d, 12 weeks, mean ± s.e.m.
[8] = compared to the high fat diet alone

Row | Substance | Brain Chromium ([1]; HFD rats, CrHis 110 mcg/kg body wt/d, 12 weeks, brain tissue homogenates, mean ± s.e.m.) | Serum Chromium [1, 7] | brain chromium levels, change [1, 8] | serum chromium levels, change [1, 8] | Blood Glucose [2, 7] | Body Weight [2, 7] | blood glucose levels, change [2, 8] | body weight, change [2, 8] | symptoms of GLUT1 deficiency [3] | subject's condition, as assessed by one or more symptoms of the disease [4] | weight loss and changes in body composition [5] | subject's condition, as assessed by one or more symptoms of the disease [6]
1 | chromium histidinate [CrHis] | 17.7 ± 0.2^c ng/g | 22.0 ± 0.6^c ng/g | significantly increased | significantly increased | 116.4 ± 2.1^c mg/dL | 315.1 ± 1.9^c g | decreased | decreased | reduction in one or more of the symptoms |  |  | 
2 | chromium picolinate |  |  |  |  |  |  |  |  | reduction in one or more of the symptoms | does not worsen or improves | modest weight loss | 
3 | chromium polyhistidinate |  |  |  |  |  |  |  |  |  |  |  | does not worsen or improves
